The numbers were not newly measured in patent US10888524B2, “Immediate release tablet of dofetilide” (Enaltec Pharma Research Pvt. Ltd., priority 2018, dated 2021), which cites them from elsewhere.

For data set [1], the system named is patients with severe left ventricular dysfunction. As to conditions: unlike class I agents.
The test system of data set [2] is patients with atrial as well as ventricular arrhythmias.

Structures are written as SMILES.

`CN(CCOc1ccc(NS(C)(=O)=O)cc1)CCc1ccc(NS(C)(=O)=O)cc1` [Dofetilide, N-[4-[2-[methyl[2-[4-[(methylsulfonyl)amino]phenoxy]ethyl]amino]ethyl]phenyl]-methane sulfonamide]: the “Safety in patients with congestive heart failure” value in data set [1] is “safe”. In addition, the “Efficacy in treating arrhythmias” value in data set [2] is given as “effective”.
